Results published in patent publication US20250092065A1, “2-(INDAZOL-5-YL)-6-(PIPERIDIN-4-YL)-1,7-NAPHTHYRIDINE DERIVATIVES AND RELATED COMPOUNDS AS MODULATORS FOR SPLICING NUCLEIC ACIDS AND FOR THE TREATMENT OF PROLIFERATIVE DISEASES” (REMIX THERAPEUTICS INC., priority 2022, published 2025).
Structures can show the parent of a compound that is named as a salt. Where two headings read alike, the source gives them in different places.

How the values were obtained:
MYB mRNA = assay: RT-qPCR splicing assay, MYB mRNA canonical (CJ) and alternative (AJ) junction; type: cell-based, human; details: Homo sapiens; for AC50: MYB alternative junction mRNA increase, read-out: MYB AJ (increase in alternative junction mRNA, AC50)
Method in brief: (§1)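 Both isoforms, CJ and AJ, read by qPCR from crude lysates of treated A673 or K562 cells; 24 h, 37 °C, maximum 10 uM. Normalization: housekeeper ΔCt, then DMSO ΔΔCt.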

HTT mRNA = assay: RT-qPCR splicing assay, HTT mRNA canonical (CJ) and alternative (AJ) junction; type: cell-based, human; details: Homo sapiens; for AC50: HTT alternative junction mRNA increase, read-out: HTT AJ (increase in alternative junction mRNA, AC50)
Method in brief: as §1

K562 cells = assay: Cell Titer Glo 2.0 cell viability (toxicity) assay, K562; details: 500 cells/well, 72 hours
Target C = assay: RT-qPCR canonical junction panel assay, Target C mRNA; type: cell-based; details: Table 4, read-out: Target C IC50 (decrease in CJ mRNA levels)
Method in brief: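 IC50 is the concentration giving 50% CJ decrease, from a 4-parameter logistic fit of percent response; response derived from ΔΔCt against housekeeper and DMSO over a fixed ΔCt window, with canonical exon-junction qPCR in compound-treated K562 or A673 cells.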

SMN2 mRNA = assay: RT-qPCR splicing assay, SMN2 mRNA; type: cell-based, human; details: Homo sapiens, canonical junction qPCR panel, Table 4; read-out: SMN2 IC50 (decrease in CJ mRNA levels)
Method in brief: as §1

[1] = RT-qPCR, MYB canonical junction mRNA decrease, read-out: MYB CJ (decrease in canonical junction mRNA, IC50)
[2] = canonical junction qPCR panel, Table 4, read-out: MYB IC50 (decrease in CJ mRNA levels)
[3] = RT-qPCR, HTT canonical junction mRNA decrease, read-out: HTT CJ (decrease in canonical junction mRNA, IC50)
[4] = canonical junction qPCR panel, Table 4, read-out: HTT IC50 (decrease in CJ mRNA levels)

| IC50 (MYB mRNA; [1]) | IC50 (MYB mRNA; [2]) | IC50 (HTT mRNA; [3]) | IC50 (HTT mRNA; [4]) | IC50 (Target C) | IC50 (SMN2 mRNA) | SMILES | AC50 (MYB mRNA; RT-qPCR) | AC50 (HTT mRNA; RT-qPCR) | Effect of Exemplary Compounds on Cell Viability, K562 (K562 cells) |
| --- | --- | --- | --- | --- | --- | --- | --- | --- | --- |
| 100 to 1000 nM | 100 to 1000 nM | 1000 to 10000 nM | 1000 to 10000 nM | 1 to 10 µM | < 100 nM | Cc1nc2c(F)cc(-c3ncc4cc(N5C[C@H](C)N[C@@H](C)C5)ccc4n3)cn2n1 [Compound 819, 6-[(3S,5S)-3,5-dimethylpiperazin-1-yl]-2-{8-fluoro-2-methyl-[1,2,4]triazolo[1,5-a]pyridin-6-yl}quinazoline hydrochloride] | 100 to 1000 nM | 1 to 10 µM | B (B represents 100-1000 nM) |
| 1000 to 10000 nM | 1000 to 10000 nM | > 10000 nM | > 10000 nM | > 10 µM | 100 to 1000 nM | CCc1cn2cc(-c3ncc4cc(N5C[C@H](C)N[C@@H](C)C5)ccc4n3)cc(F)c2n1 [Compound 821] | > 10000 nM | > 10 µM | C (C represents 1000-9999 nM) |
| 100 to 1000 nM | 100 to 1000 nM | 1000 to 10000 nM | 1000 to 10000 nM | 1 to 10 µM | < 100 nM | Cc1nc2c(F)cc(-c3ncc4cc(N5C[C@@H](C)N[C@@H](C)C5)ccc4n3)cn2n1 [Compound 825, 6-[(3R,5S)-3,5-dimethylpiperazin-1-yl]-2-{8-fluoro-2-methyl-[1,2,4]triazolo[1,5-a]pyridin-6-yl}quinazoline] | 100 to 1000 nM | 1 to 10 µM | C (C represents 1000-9999 nM) |

The remaining lines, values behind:

| SMILES | IC50 (MYB mRNA; [1]) | IC50 (MYB mRNA; [2]) | IC50 (HTT mRNA; [3]) | IC50 (HTT mRNA; [4]) | IC50 (Target C) | IC50 (SMN2 mRNA) | AC50 (MYB mRNA; RT-qPCR) | AC50 (HTT mRNA; RT-qPCR) | Effect of Exemplary Compounds on Cell Viability, K562 (K562 cells) |
| --- | --- | --- | --- | --- | --- | --- | --- | --- | --- |
| Cc1nc(-c2cc(F)c3nn(C)cc3c2)nc2ccc(N3CCC(N4CCC4)CC3)cc12 [Compound 788, 6-[4-(azetidin-1-yl)piperidin-1-yl]-2-(7-fluoro-2-methylindazol-5-yl)-4-methylquinazoline] | 1000 to 10000 nM | 1000 to 10000 nM | 1000 to 10000 nM | 1000 to 10000 nM | 1 to 10 µM | < 100 nM | 100 to 1000 nM | 1 to 10 µM | B (B represents 100-1000 nM) |
| COc1cc(-c2ncc3cc(N4C[C@H](C)N[C@@H](C)C4)ccc3n2)cn2cc(C)nc12 [Compound 816] | 100 to 1000 nM | 100 to 1000 nM | 1000 to 10000 nM | 1000 to 10000 nM | > 10 µM | < 100 nM | < 100 nM | 1 to 10 µM | B (B represents 100-1000 nM) |
| Cc1cn2cc(-c3ncc4cc(N5C[C@H](C)N[C@@H](C)C5)ccc4n3)cc(C#N)c2n1 [Compound 817] | < 100 nM | < 100 nM | 100 to 1000 nM | 100 to 1000 nM | 1 to 10 µM | < 100 nM | < 100 nM | 1 to 10 µM | B (B represents 100-1000 nM) |
| COc1nc(-c2ncc3cc(N4C[C@H](C)N[C@@H](C)C4)ccc3n2)cn2cc(C)nc12 [Compound 823] | 100 to 1000 nM | 100 to 1000 nM | 1000 to 10000 nM | 1000 to 10000 nM | > 10 µM | < 100 nM | 100 to 1000 nM | 1 to 10 µM | B (B represents 100-1000 nM) |
| Cc1cn2cc(-c3ncc4cc(N5C[C@H](C)N(C)[C@@H](C)C5)ccc4n3)cc(F)c2n1 [Compound 824] | 100 to 1000 nM | 100 to 1000 nM | 100 to 1000 nM | 100 to 1000 nM | 1 to 10 µM | < 100 nM | 100 to 1000 nM | 1 to 10 µM | B (B represents 100-1000 nM) |
| Cc1cn2cc(-c3ncc4cc(N5C[C@@H](C)N(C)[C@@H](C)C5)ccc4n3)cc(F)c2n1 [Compound 826, 2-{8-fluoro-2-methylimidazo[1,2-a]pyridin-6-yl}-6-[(3R,5S)-3,4,5-trimethylpiperazin-1-yl]quinazoline] | 100 to 1000 nM | 100 to 1000 nM | 1000 to 10000 nM | 1000 to 10000 nM | 1 to 10 µM | < 100 nM | < 100 nM | 1 to 10 µM | B (B represents 100-1000 nM) |
